Measurements as given in patent publication US9994581B2, “Bromodomain inhibitors” (AbbVie Inc., priority 2013, dated 2018).
Read-outs that look alike come from different tables or passages of the source.

Key:
[1] = test system: breast cancer cell line MX-1; test: MX-1 cell line proliferation assay (3-day, Cell Titer Glo); assay type: cell-based; settings: 72 hours, read-out: Cellular proliferation: EC50
Experimental: The impact of compounds of the Examples on cancer cell proliferation was determined using the breast cancer cell line MX-1 (ATCC) in a 3-day proliferation assay and the data are reported in Table 1. […] For compound testing, MX-1 cells were plated in 96-well black bottom plates at a density of 5000 cells/well in 90 μL of culture media and incubated at 37° overnight to allow cell adhesion and spreading. Compound dilution series were prepared in DMSO via a 3-fold serial dilution from 3 mM to 0.1 μM. The DMSO dilution series were then diluted 1:100 in phosphate buffered saline, and 10 μL of the resulted solution were added to the appropriate wells of the MX-1 cell plate. The final compound concentrations in the wells were 3, 1, 0.3, 0.1, 0.03, 0.01, 0.003, 0.001, 0.0003, and 0.0001 μM, or 1, 0.3, 0.1, 0.03, 0.01, 0.003, 0.001, 0.0003, 0.0001, and 0.00003 μM.
Luminescence readings from the Cell Titer Glo assay were normalized to the DMSO treated cells and analyzed using the GraphPad Prism software with sigmoidal curve fitting to obtain EC50s.

BRD4 (BDI-BDII_K57-K550) = BRD4 (BDI-BDII_K57-K550) (Homo sapiens, UniProt O60885); test: TR-FRET bromodomain binding assay; settings: His-tagged tandem bromodomain, Alexa647-labeled probe; Ki calculated from IC50s, probe Kd and probe concentration
Experimental: A time-resolved fluorescence resonance energy transfer (TR-FRET) assay was used to determine the affinities of compounds of the Examples listed in Table 1 for the tandem domain of bromodomain BRD4. […] An Alexa647-labeled BET-inhibitor was used as the fluorescent probe in the assay.
TR-FRET data were normalized to the means of 24 no-compound controls (“high”) and 8 controls containing 1 μM un-labeled probe (“low”). Percent inhibition was plotted as a function of compound concentration and the data were fit with the 4 parameter logistic equation to obtain IC50s. Inhibition constants (Ki) were calculated from the IC50s, probe Kd and probe concentration. Typical Z′ values were between 0.65 and 0.75.

[2] = test system: LPS induced IL-6 (Interleukin-6) production; test: LPS (lipopolysaccharide) induced IL-6 production mouse assay; settings: CD1 mouse strain; oral administration one hour before LPS 2.5 mg/kg i.p.; serum IL-6 2 hours after LPS; p < 0.05
Experimental: Compounds of the Examples listed in Table 2 were assayed for their ability to inhibit LPS (lipopolysaccharide) induced IL-6 (Interleukin-6) production in mice. Fox Chase SCID® female mice (Charles Rivers Labs, 8 per group) or CD1 female mice received an intraperitoneal challenge of lipopolysaccharide (2.5 mg/kg, L2630 E. coli 0111:B4) one hour after oral administration of compounds. Mice were euthanized 2 hours after lipopolysaccharide injection, blood was removed by cardiac puncture, and then the serum harvested from the blood samples was frozen at −80° C. On the day of the assay the serum samples were brought to room temperature and then diluted 1:20 in phosphate-buffered saline containing 2% bovine serum albumin. Interleukin-6 measurements were performed using a cytokine assay from Meso Scale Discovery (Gaithersburg, Md.) for mouse serum analysis according to the manufacturer's protocol and read on a SECTOR Imager 6000 (Meso Scale Discovery, Gaithersburg, Md.) instrument. Statistical analysis was performed using Prism software (version 5.0) incorporating Dunnett's one way ANOVA. The IL-6 mean and standard deviation of the group of vehicle treated animals were compared with the IL-6 mean and standard deviation of the group treated with drug.

In the case of CCS(=O)(=O)Nc1ccc2c(c1)-c1cn(C)c(=O)cc1OCCCCc1cc(Cl)ccc1O2 [Example A-9, N-(11-chloro-2-methyl-3-oxo-2,3,6,7,8,9-hexahydrodibenzo[4,5:7,8][1,6]dioxacyclododecino[3,2-c]pyridin-17-yl)ethanesulfonamide], the EC50 ([1]; Homo sapiens, MX1, MX-1 cells) is reported as 5.69 nM, the Ki (BRD4 (BDI-BDII_K57-K550)) is reported as 0.93 nM and the “Inhibition of LPS induced IL-6 production, % inhibition” value (shortened to “Inhibition … % inhibition”) [2] is reported as 83%.
CCS(=O)(=O)Nc1ccc2c(c1)-c1cn(C)c(=O)cc1OCCCCc1cc(F)cc(F)c1O2 [Example A-14, N-(11,13-difluoro-2-methyl-3-oxo-2,3,6,7,8,9-hexahydrodibenzo[4,5:7,8][1,6]dioxacyclododecino[3,2-c]pyridin-17-yl)ethanesulfonamide] was tested, and the “Inhibition … % inhibition” value [2] was 77%.
In the case of CCS(=O)(=O)c1ccc2c(c1)-c1cn(C)c(=O)cc1OCCCCc1cc(F)cc(F)c1O2 [Example A-20, 17-(ethylsulfonyl)-11,13-difluoro-2-methyl-6,7,8,9-tetrahydrodibenzo[4,5:7,8][1,6]dioxacyclododecino[3,2-c]pyridin-3(2H)-one], the EC50 ([1]; Homo sapiens, MX1, MX-1 cells) is reported as 8.69 nM, the Ki (BRD4 (BDI-BDII_K57-K550)) is reported as 1.25 nM and the “Inhibition … % inhibition” value [2] is reported as 81%.
CCN1CCOc2cc(=O)n(C)cc2-c2cc(NS(=O)(=O)CC)ccc2Oc2ccc(Cl)cc2C1 [Example B-1, N-(11-chloro-8-ethyl-2-methyl-3-oxo-2,3,6,7,8,9-hexahydrodibenzo[f,i]pyrido[3,4-k][1,8,4]dioxazacyclododecin-17-yl)ethanesulfonamide] was tested, and the EC50 ([1]; Homo sapiens, MX1, MX-1 cells) was 8.77 nM, the Ki (BRD4 (BDI-BDII_K57-K550)) was 15.1 nM and the “Inhibition … % inhibition” value [2] was 43%.
In the case of “17-(ethylsulfonyl)-11-fluoro-2-methyl-6,7,8,9-tetrahydrodibenzo[4,5:7,8][1,6]dioxacyclododecino[3,2-c]pyridin-3(2H)-one [Example A-22]”, the EC50 ([1]; MX-1 cells) is reported as 9 nM, the Ki (BRD4 (BDI-BDII_K57-K550)) is reported as 1.51 nM and the “Inhibition … % inhibition” value [2] is reported as 83%.
Compound CCS(=O)(=O)c1ccc2c(c1)-c1nn(C)c(=O)cc1OCCCCc1cc(F)cc(F)c1O2 [Example A-57, 17-(ethylsulfonyl)-11,13-difluoro-2-methyl-6,7,8,9-tetrahydrodibenzo[4,5:7,8][1,6]dioxacyclododecino[3,2-c]pyridazin-3(2H)-one] has an EC50 ([1]; Homo sapiens, MX1, MX-1 cells) of 53.1 nM and a Ki (BRD4 (BDI-BDII_K57-K550)) of 8.44 nM.
CCS(=O)(=O)Nc1ccc2c(c1)-c1cn(C)c(=O)cc1OCCCCc1ccc(Cl)cc1O2 [Example A-52, N-(12-chloro-2-methyl-3-oxo-2,3,6,7,8,9-hexahydrodibenzo[4,5:7,8][1,6]dioxacyclododecino[3,2-c]pyridin-17-yl)ethanesulfonamide] was tested, and the EC50 ([1]; Homo sapiens, MX1, MX-1 cells) was 5.76 nM and the Ki (BRD4 (BDI-BDII_K57-K550)) was 0.75 nM.
In the case of CCS(=O)(=O)Nc1ccc2c(c1)-c1cn(C)c(=O)cc1OCCCCc1cc(C(F)(F)F)ccc1O2 [Example A-29, N-[2-methyl-3-oxo-11-(trifluoromethyl)-2,3,6,7,8,9-hexahydrodibenzo[4,5:7,8][1,6]dioxacyclododecino[3,2-c]pyridin-17-yl]ethanesulfonamide], the EC50 ([1]; Homo sapiens, MX1, MX-1 cells) is reported as 3.97 nM and the Ki (BRD4 (BDI-BDII_K57-K550)) is reported as 0.74 nM.
CCS(=O)(=O)Nc1ccc2c(c1)-c1nn(C)c(=O)cc1OCCCCc1cc(F)cc(F)c1O2 [Example A-58, N-(11,13-difluoro-2-methyl-3-oxo-2,3,6,7,8,9-hexahydrodibenzo[4,5:7,8][1,6]dioxacyclododecino[3,2-c]pyridazin-17-yl)ethanesulfonamide] showed an EC50 ([1]; Homo sapiens, MX1, MX-1 cells) of 18.4 nM and a Ki (BRD4 (BDI-BDII_K57-K550)) of 2.01 nM.
Work on CCOC(=O)NS(=O)(=O)N1CCOc2cc(=O)n(C)cc2-c2cc(NS(=O)(=O)CC)ccc2Oc2ccc(Cl)cc2C1 [Example B-15, ethyl ({11-chloro-17-[(ethylsulfonyl)amino]-2-methyl-3-oxo-2,3,6,7-tetrahydrodibenzo[f,i]pyrido[3,4-k][1,8,4]dioxazacyclododecin-8(9H)-yl}sulfonyl)carbamate] yielded an EC50 ([1]; Homo sapiens, MX1, MX-1 cells) of 153 nM and a Ki (BRD4 (BDI-BDII_K57-K550)) of 1 nM.
CCS(=O)(=O)Nc1ccc2c(c1)-c1cn(C)c(=O)cc1OC(C)CCCc1cc(Cl)ccc1O2 (stereo not drawn) [Example A-17, N-(11-chloro-2,6-dimethyl-3-oxo-2,3,6,7,8,9-hexahydrodibenzo[4,5:7,8][1,6]dioxacyclododecino[3,2-c]pyridin-17-yl)ethanesulfonamide] showed an EC50 ([1]; Homo sapiens, MX1, MX-1 cells) of 7.82 nM and a Ki (BRD4 (BDI-BDII_K57-K550)) of 2.25 nM.
Compound CCS(=O)(=O)Nc1ccc2c(c1)-c1cn(C)c(=O)cc1OCCN(C(C)=O)Cc1cc(Cl)ccc1O2 [Example B-7, N-(8-acetyl-11-chloro-2-methyl-3-oxo-2,3,6,7,8,9-hexahydrodibenzo[f,i]pyrido[3,4-k][1,8,4]dioxazacyclododecin-17-yl)ethanesulfonamide] has an EC50 ([1]; Homo sapiens, MX1, MX-1 cells) of 45.4 nM and a Ki (BRD4 (BDI-BDII_K57-K550)) of 1.61 nM.
CCS(=O)(=O)Nc1cnc2c(c1)-c1cn(C)c(=O)cc1OCCCCc1cc(F)cc(F)c1O2 [Example A-35, N-(11,13-difluoro-2-methyl-3-oxo-2,3,6,7,8,9-hexahydrobenzo[11,12][1,6]dioxacyclododecino[2,3-b:4,5-c′]dipyridin-17-yl)ethanesulfonamide] gave an EC50 ([1]; Homo sapiens, MX1, MX-1 cells) of 4.18 nM and a Ki (BRD4 (BDI-BDII_K57-K550)) of 0.68 nM.
COC(=O)c1cnc2c(c1)-c1cn(C)c(=O)cc1OCCCCc1cc(Cl)ccc1O2 [Example A-31, methyl 11-chloro-2-methyl-3-oxo-2,3,6,7,8,9-hexahydrobenzo[11,12][1,6]dioxacyclododecino[2,3-b:4,5-c′]dipyridine-17-carboxylate] showed an EC50 ([1]; Homo sapiens, MX1, MX-1 cells) of 302 nM and a Ki (BRD4 (BDI-BDII_K57-K550)) of 24.3 nM.
Cn1cc2c(cc1=O)OCCCCc1cc(Cl)ccc1Oc1ncccc1-2 [Example A-27, 11-chloro-2-methyl-6,7,8,9-tetrahydrobenzo[11,12][1,6]dioxacyclododecino[2,3-b:4,5-c′]dipyridin-3(2H)-one] was tested, and the EC50 ([1]; Homo sapiens, MX1, MX-1 cells) was 62.8 nM and the Ki (BRD4 (BDI-BDII_K57-K550)) was 12.2 nM.
Compound CCOC(=O)c1ccc2c(c1)-c1cn(C)c(=O)cc1OCCOCc1cc(Cl)ccc1O2 [Example B-17c, ethyl 11-chloro-2-methyl-3-oxo-3,6,7,9-tetrahydro-2H-dibenzo[6,7:9,10][1,4,8]trioxacyclododecino[11,12-c]pyridine-17-carboxylate] has an EC50 ([1]; Homo sapiens, MX1, MX-1 cells) of 6.7 nM and a Ki (BRD4 (BDI-BDII_K57-K550)) of 10.7 nM.
In the case of CCNC(=O)N1CCOc2cc(=O)n(C)cc2-c2cc(NS(=O)(=O)CC)ccc2Oc2ccc(Cl)cc2C1 [Example B-9, 11-chloro-N-ethyl-17-[(ethylsulfonyl)amino]-2-methyl-3-oxo-2,3,6,7-tetrahydrodibenzo[f,i]pyrido[3,4-k][1,8,4]dioxazacyclododecine-8(9H)-carboxamide], the EC50 ([1]; Homo sapiens, MX1, MX-1 cells) is reported as 47.3 nM and the Ki (BRD4 (BDI-BDII_K57-K550)) is reported as 0.64 nM.
In the case of CCS(=O)(=O)c1ccc2c(c1)-c1cn(C)c(=O)cc1OCCCCc1ccccc1O2 [Example A-4, 17-(ethylsulfonyl)-2-methyl-6,7,8,9-tetrahydrodibenzo[4,5:7,8][1,6]dioxacyclododecino[3,2-c]pyridin-3(2H)-one], the EC50 ([1]; Homo sapiens, MX1, MX-1 cells) is reported as 10.4 nM and the Ki (BRD4 (BDI-BDII_K57-K550)) is reported as 3.07 nM.
Cn1cc2c(cc1=O)OCCNC(=O)c1cc(Cl)ccc1Oc1ccc(N)cc1-2 [Example B-3, 17-amino-11-chloro-2-methyl-7,8-dihydrodibenzo[f,i]pyrido[3,4-k][1,8,4]dioxazacyclododecine-3,9(2H,6H)-dione] showed an EC50 ([1]; Homo sapiens, MX1, MX-1 cells) of over 1000 nM and a Ki (BRD4 (BDI-BDII_K57-K550)) of 172 nM.
With CCS(=O)(=O)c1ccc2c(c1)-c1cn(C)c(=O)cc1OCC/C=C/c1ccc(Cl)cc1O2 [Example A-24, (E)-12-chloro-17-(ethylsulfonyl)-2-methyl-6,7-dihydrodibenzo[4,5:7,8][1,6]dioxacyclododecino[3,2-c]pyridin-3(2H)-one] the EC50 ([1]; Homo sapiens, MX1, MX-1 cells) was 16.4 nM and the Ki (BRD4 (BDI-BDII_K57-K550)) was 3.34 nM.
For CCS(=O)(=O)c1ccc2c(c1)-c1nn(C)c(=O)cc1OCCCCc1cc(C#N)ccc1O2 [Example A-54, 17-(ethylsulfonyl)-2-methyl-3-oxo-2,3,6,7,8,9-hexahydrodibenzo[4,5:7,8][1,6]dioxacyclododecino[3,2-c]pyridazine-11-carbonitrile], the EC50 ([1]; Homo sapiens, MX1, MX-1 cells) was 162 nM and the Ki (BRD4 (BDI-BDII_K57-K550)) was 19.7 nM.
Work on CCS(=O)(=O)Nc1ccc2c(c1)-c1cn(C)c(=O)cc1OCCCCc1cc(F)ccc1O2 [Example A-49, N-(11-fluoro-2-methyl-3-oxo-2,3,6,7,8,9-hexahydrodibenzo[4,5:7,8][1,6]dioxacyclododecino[3,2-c]pyridin-17-yl)ethanesulfonamide] yielded an EC50 ([1]; Homo sapiens, MX1, MX-1 cells) of 3.64 nM and a Ki (BRD4 (BDI-BDII_K57-K550)) of 1.57 nM.
CCOC(=O)N1CCOc2cc(=O)n(C)cc2-c2cc(NS(=O)(=O)CC)ccc2Oc2ccc(Cl)cc2C1 [Example B-8, ethyl 11-chloro-17-[(ethylsulfonyl)amino]-2-methyl-3-oxo-2,3,6,7-tetrahydrodibenzo[f,i]pyrido[3,4-k][1,8,4]dioxazacyclododecine-8(9H)-carboxylate] showed an EC50 ([1]; Homo sapiens, MX1, MX-1 cells) of 17 nM and a Ki (BRD4 (BDI-BDII_K57-K550)) of 0.97 nM.
With Cn1cc2c(cc1=O)OCCCc1cc(Cl)ccc1Oc1ccc(N)cc1-2 [Example A-7, 16-amino-10-chloro-2-methyl-7,8-dihydro-2H-dibenzo[4,5:7,8][1,6]dioxacycloundecino[3,2-c]pyridin-3(6H)-one] the EC50 ([1]; Homo sapiens, MX1, MX-1 cells) was 109 nM and the Ki (BRD4 (BDI-BDII_K57-K550)) was 25.7 nM.
